Values quoted from earlier work as cited in US20080292726A1, “[…] COMPOSITIONS AND METHODS OF THEIR USE” (priority 2007, published 2008).

Test system: mouse model of uveitis
Details: systemically administered, subcutaneously injected into the neck

## O=[N+]([O-])[O-].O=[N+]([O-])[O-].O=[N+]([O-])[O-].[Ga+3] [gallium nitrate]
  efficacy in a mouse model of uveitis: effective
